Laboratory results taken from the supplement of paper PMC11208160.

Experiment: recombinant barcode read abundance after kanamycin selection (control-corrected) (log10(CPM+1)); higher = more efficient recombination; sequences stand for … in AGTGCAGAGAAAATCGGCCAGTTTTCTCTGCCTGCAGTCCGCATGCCGT…ATTTATGCAGCGGACTGCCTTTCTCCCAAAGTGATAAACCGGACAGTATCATGGACCGGTTTTCCCGGTAATCCGTATTTGCAAGGTTGGTTTCACT; site = the 11-nt target
Outline: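 This pooled E. coli screen matched targets with IS621 bridge RNA target-binding loops. Plating was done in duplicate on chloramphenicol/ampicillin LB agar as a control and on chloramphenicol/ampicillin/kanamycin plus 0.1 mM IPTG. Recombination efficiency reflects barcode counts at recombinant junctions as counts per million, averaged and control-corrected. The figures are log10(CPM+1).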
With “TGTATTCGCTGGGTTCTAACCTGTTGCCTAG [TGTATTCCTAG_LTGcore_GC_RTGcore_CT] (site TGTATTCCTAG) (LTG core: GC, RTG core: CT)” the “recombinant barcode read abundance (log10)” value was 0.0931.
With “TGTATTCGGTGGGTTCTAACCTGTTGCCTAG [TGTATTCCTAG_LTGcore_GG_RTGcore_CT] (site TGTATTCCTAG) (LTG core: GG, RTG core: CT)” the “recombinant barcode read abundance (log10)” value was 0.0184.
For “TGTATTCTATGGGTTCTAACCTGTTGCCTAG [TGTATTCCTAG_LTGcore_TA_RTGcore_CT] (site TGTATTCCTAG) (LTG core: TA, RTG core: CT)”, the “recombinant barcode read abundance (log10)” value was 0.0251.
In the case of “TGTATTCTCTGGGTTCTAACCTGTTGCCTGA [TGTATTCCTAG_LTGcore_TC_RTGcore_TC] (site TGTATTCCTAG) (LTG core: TC, RTG core: TC)”, the “recombinant barcode read abundance (log10)” value is reported as 0.141.
With “TGTATTCTGTGGGTTCTAACCTGTTGCCTAG [TGTATTCCTAG_LTGcore_TG_RTGcore_CT] (site TGTATTCCTAG) (LTG core: TG, RTG core: CT)” the “recombinant barcode read abundance (log10)” value was 0.0339.
For “TGTATTCTTTGGGTTCTAACCTGTTGCCTAA [TGTATTCCTAG_LTGcore_TT_RTGcore_TT] (site TGTATTCCTAG) (LTG core: TT, RTG core: TT)”, the “recombinant barcode read abundance (log10)” value was 0.0888.
In the case of “TTATAAAAATGGGTTCTAACCTGTTGCCTAG [TTATAAACTAG_LTGcore_AA_RTGcore_CT] (site TTATAAACTAG) (LTG core: AA, RTG core: CT)”, the “recombinant barcode read abundance (log10)” value is reported as 0.0784.
With “TTATAAACATGGGTTCTAACCTGTTGCCTTG [TTATAAACTAG_LTGcore_CA_RTGcore_CA] (site TTATAAACTAG) (LTG core: CA, RTG core: CA)” the “recombinant barcode read abundance (log10)” value was 0.0537.
For “TTATAAACCTGGGTTCTAACCTGTTGCCTAG [TTATAAACTAG_LTGcore_CC_RTGcore_CT] (site TTATAAACTAG) (LTG core: CC, RTG core: CT)”, the “recombinant barcode read abundance (log10)” value was 0.437.
With “TTATAAACTTGGGTTCTAACCTGTTGCCTCC [TTATAAACTAG_LTGcore_CT_RTGcore_GG] (site TTATAAACTAG) (LTG core: CT, RTG core: GG)” the “recombinant barcode read abundance (log10)” value was 0.179.
With “TTATAAACTTGGGTTCTAACCTGTTGCCTGA [TTATAAACTAG_LTGcore_CT_RTGcore_TC] (site TTATAAACTAG) (LTG core: CT, RTG core: TC)” the “recombinant barcode read abundance (log10)” value was 0.137.
In the case of “TTATAAACTTGGGTTCTAACCTGTTGCCTTC [TTATAAACTAG_LTGcore_CT_RTGcore_GA] (site TTATAAACTAG) (LTG core: CT, RTG core: GA)”, the “recombinant barcode read abundance (log10)” value is reported as 0.0607.
For “TTATAAAGCTGGGTTCTAACCTGTTGCCTAG [TTATAAACTAG_LTGcore_GC_RTGcore_CT] (site TTATAAACTAG) (LTG core: GC, RTG core: CT)”, the “recombinant barcode read abundance (log10)” value was 0.0375.
In the case of “TTATAAAGGTGGGTTCTAACCTGTTGCCTAG [TTATAAACTAG_LTGcore_GG_RTGcore_CT] (site TTATAAACTAG) (LTG core: GG, RTG core: CT)”, the “recombinant barcode read abundance (log10)” value is reported as 0.0816.
With “TTATAAATATGGGTTCTAACCTGTTGCCTAG [TTATAAACTAG_LTGcore_TA_RTGcore_CT] (site TTATAAACTAG) (LTG core: TA, RTG core: CT)” the “recombinant barcode read abundance (log10)” value was 0.124.
